Each structure is given as a SMILES string.

The subject of this assay is Plasmodium falciparum. Put plainly: GSK_TCMDC: Inhibition of Plasmodium falciparum 3D7 in whole erythrocytes, using parasite LDH activity as an index of growth. The assay is classed as functional, organism-based. Conditions: Plasmodium falciparum, 3D7.
With `OC(CNCc1ccccc1OC(F)F)c1cccc(C(F)(F)F)c1` (stereo unspecified), the XC50 is 765 nM. In the case of `OC(CNCc1ccccc1OCc1ccccc1)c1cccc(I)c1` (stereo unspecified), the XC50 is 418 nM. The value for `Cc1[nH]c(C)c(-c2ccc(Oc3ccc(C(F)(F)F)cc3)cc2)c(=O)c1Br` was 206 nM; that for `Cc1n[nH]c(C)c1C1CCN(CC2CCC(NC(=O)/C=C/c3ccc(Cl)c(Cl)c3)CC2)CC1` (stereo unspecified) was 729 nM.

In turn, `Cc1cccc2nc(-c3ccc(-c4cccc(CN5CCN(CC6CCCN(C)C6)CC5)c4)s3)[nH]c12` (stereo unspecified) came in with an XC50 of 121 nM. The molecule `CSc1nccc(-c2ccc3ccnc(N)c3c2)n1` returned an XC50 of 925 nM. The molecule `COc1cc2c(cc1S(=O)(=O)c1ccc(OCc3ccc(Cl)cc3)cc1)CCN(Cc1ccc(NC(C)=O)s1)CC2` came in with an XC50 of 919 nM.

Take `Cc1cccc2nc(-c3ccc(-c4ccc(NC(=O)Nc5ccc(F)c(F)c5F)cc4)s3)[nH]c12`: the XC50 was 176 nM. Consider `O=C(Nc1cccc(Cl)c1Cl)Nc1ccnc2ccccc12`, for which the XC50 was found to be 745 nM. `CC(C)CCNCc1ccc(OCc2cccc(C(=O)Nc3ccccc3)c2)c(I)c1` displayed an XC50 of 288 nM. For the molecule `COCCNC(=O)C1CCN(C(c2ccc(Cl)cc2)c2ccc(Cl)cc2)CC1`, the XC50 worked out at 553 nM. For the molecule `Cc1ccc(C2(O)CC3CCC(C2)N3C)cc1` (stereo unspecified), the XC50 is 611 nM. The same measure for `CCCCNC(=O)[C@@H]1CCCN1C(=O)c1ccc(O)c(-c2ccc(Cl)c(Cl)c2)c1`: 751 nM; for `COc1ccc(CC(C)NCC(O)c2cccc(Cl)c2)cc1C` (stereo unspecified): 902 nM.

For the molecule `N#Cc1ccc(-c2ccc(C(=O)NCCCCN3CCC(c4cn(CCO)c5ccccc45)CC3)cc2)cc1`, the XC50 was 954 nM. The value for `Cc1[nH]c(C)c(-c2ccc(-c3ccc(OC(F)(F)F)cc3)nc2)c(=O)c1Cl` was 201 nM; that for `COc1cc(Cc2cnc(N)nc2N)ccc1OCc1ccc(F)c(F)c1` was 910 nM; that for `CCCC[C@@H](C(=O)NCc1ccccc1C(F)(F)F)N1C(=O)CCC1C(=O)Nc1ccc([N+](=O)[O-])cc1` (stereo partly specified) was 848 nM. In turn, `O=S(=O)(c1c(Cl)cc(Cl)cc1Cl)N1CCCCC(c2ccc(Cl)cc2)=N1` came in with an XC50 of 402 nM.

Take `O=C1CCCN1CCCNCc1ccc(-c2cccc(-c3nc4cc(C(F)(F)F)ccc4[nH]3)c2)cc1`: the XC50 was found to be 191 nM. In the case of `COc1ccc(CNC2CCN(C)CC2)cc1-c1ccc(S(=O)(=O)NCCc2ccccn2)c(C)c1`, the XC50 is 1150 nM.

`Cc1cc(=NN=Cc2ccc(Cl)cc2)c2ccccc2[nH]1` registered an XC50 of 787 nM. The value for `CCC(C)c1ccc(-n2c(Nc3ccccc3)nc3cc(S(N)(=O)=O)ccc32)cc1` (stereo unspecified) was 1060 nM; that for `O=C(Nc1ccc(Cl)c(Cl)c1)N1CCC(CNCc2cccc([N+](=O)[O-])c2)CC1` was 979 nM; that for `CCC(C)CN1CCCN(c2ccc(NC(=O)c3cccs3)cc2)CC1` (stereo unspecified) was 802 nM. As to `O=C(/C=C/c1ccc(Cl)c(Cl)c1)NCCCCCN1CCN(C(=O)Nc2ccc(C(F)(F)F)cc2)CC1`, the XC50 was 721 nM. Regarding `N#Cc1cccc(NC(=O)NC2CCN(CCCCCNC(=O)C3CC3c3ccc(Cl)c(Cl)c3)CC2)c1` (stereo unspecified), the XC50 worked out at 785 nM. Regarding `NS(=O)(=O)Cc1cccc(-c2ccnc3ccc(-c4cccc(S(N)(=O)=O)c4)cc23)c1`, the XC50 stood at 1560 nM. On to `NC1=NC(c2ccccc2)(c2ccccc2)C(=O)N1CC1CCC1`, for which the XC50 was determined as 753 nM. The molecule `COc1cc(CN2CCC(NC(=O)[C@H](Cc3ccccc3)NC(=O)Nc3ccc(Oc4ccccc4)cc3)C2)ccc1O` (stereo partly specified) yielded an XC50 of 810 nM. Consider `COc1ccc(C)cc1NC(=O)CSc1nc2cccnc2n1C1CCCCC1`, for which the XC50 was 544 nM. In turn, `CCn1c2ccccc2c2cc(Cc3cnc(N)nc3N)ccc21` registered an XC50 of 221 nM. `O=c1cc(NCCCN(Cc2cc3c(Cl)cc(Cl)cc3[nH]2)Cc2cc3c(Cl)cc(Cl)cc3[nH]2)[nH]c2ccccc12`: the XC50 is 121 nM.

For `CC(C)CCn1c(Sc2ccc(C#N)c([N+](=O)[O-])c2)nnc1-c1ccccc1Cl`, the XC50 was found to be 1030 nM. In turn, `O=C(Nc1ccc(C(=O)N2CCN(CCN3CCN(c4cccc(C(F)(F)F)c4)CC3)CC2)cc1)c1cc(Cl)cc(Cl)c1` registered an XC50 of 827 nM. `Cc1cc(CN2CCN(CCOC(c3ccccc3)c3ccccc3)CC2)ccc1O` gave an XC50 of 935 nM. Turning to `COc1ccc(-c2onc(C(F)(F)F)c2-c2cc3ccccc3o2)c(O)c1`, the XC50 was found to be 863 nM. As for `CC(C)Nc1cc(C(=O)N[C@@H](Cc2ccccc2)[C@H](O)CNCc2cccc(C(F)(F)F)c2)c(F)c(N2CCCCS2(=O)=O)c1`, the XC50 worked out at 794 nM. The value for `O=C(NC1CCCCC1)N(CCCn1ccnc1)Cc1csc(-c2ccc(CNCc3ccccc3)cc2)n1` was 843 nM; that for `OC(CN1CCN(c2cccc(Cl)c2)CC1)C(c1ccccc1)c1ccccc1` (stereo unspecified) was 1150 nM. The molecule `c1ccc2[nH]c(-c3ccc(-c4ccc(CN5CCCCC5)cc4)s3)nc2c1` gave an XC50 of 742 nM. The molecule `Oc1ccccc1CN1CCN(C(c2ccccc2)c2ccccc2)CC1` displayed an XC50 of 761 nM.

With `Cc1ccc(-n2nc(C)c3c2NC(=O)CSC3c2ccsc2)cc1` (stereo unspecified), the XC50 turned out to be 1010 nM. The value for `O=C(Nc1ccon1)c1cc(-c2cccnc2)nc2ccc(Br)cc12` was 744 nM. On to `O=C(C=Cc1ccc(Cl)c(Cl)c1)NC1CCN(CCc2ccccc2)CC1`, for which the XC50 came out at 594 nM. The molecule `COc1nc2c(N3CCN(CCNCc4ccc5c(n4)NC(=O)CO5)CC3)ccnc2cc1F` gave an XC50 of 758 nM. In turn, `O=C(Nc1ccc(N2CCNCC2)cc1)c1ccn2ncc(-c3cccc(Cl)c3)c2n1` registered an XC50 of 922 nM. `Cn1cnc2c(Nc3ccncc3)nc(-c3ccc4ccccc4c3)nc21` returned an XC50 of 867 nM. Consider `COc1cccc(Nc2nccc(-c3c(-c4cccc(NC(=O)c5c(F)cccc5F)c4)nn4ccccc34)n2)c1`, for which the XC50 was 178 nM.

In the case of `O=C(NCCN1CCCC1)c1cccc(-c2ccc(-c3nc4ccccc4[nH]3)cc2)c1`, the XC50 came to 919 nM. As for `O=C(/C=C/c1ccc(Cl)c(Cl)c1)NCCCCN1CCCN(C(=O)Nc2ccc(F)c(Cl)c2)CC1`, the XC50 was determined as 1510 nM.

On to `CCOc1cc(C(=O)N[C@@H](Cc2ccccc2)[C@H](O)CNCc2cc(OC)cc(OC)c2)cc(N2CCCCS2(=O)=O)c1`, for which the XC50 was 519 nM. For `Cc1cc(NC(=O)Nc2ccc(Oc3ccccc3)cc2)c2ccccc2n1`, the XC50 is 840 nM.

Regarding `COc1ccc2[nH]c(-c3ccccc3)cc(=NN=Cc3ccncc3)c2c1`, the XC50 was found to be 812 nM. `O=C(Nc1ccc(Cl)c(C(F)(F)F)c1)NC1CCN(CCCCCNC(=O)C2CC2c2ccc(Cl)c(Cl)c2)CC1` (stereo unspecified) returned an XC50 of 683 nM. Molecule `CN(C)c1ccc(CN2CCC(NC(=O)c3ccc(-c4cccc(F)c4)s3)CC2)cc1` had an XC50 of 1490 nM.

In the case of `Cc1cccc2nc(-c3ccc(-c4ccc(CNCCCN5CCCC5=O)cc4)cc3)[nH]c12`, the XC50 is 632 nM. The value for `O=C1O[C@H](c2ccccc2)[C@H](c2ccccc2)N(C(=O)OCc2ccccc2)[C@H]1Cc1ccccc1C1CCCC1` was 59.1 nM. `CCNc1nc(OCC(F)(F)F)nc(N(c2ccccc2)c2ccccc2)n1` had an XC50 of 472 nM. The value for `CCn1c(-c2nonc2N)nc2c(-c3cccc(Cl)c3)ncc(OCCCNCCc3c[nH]cn3)c21` was 983 nM; that for `COC(=O)c1cccc(CNCc2ccc(-c3cccc(-c4nc5cc(C(F)(F)F)ccc5[nH]4)c3)cc2)c1` was 156 nM. In turn, `CC(C)(C)C(=O)N1CCN(c2ccc([N+](=O)[O-])c(NC3CC3)c2)CC1` showed an XC50 of 941 nM. `COc1ccc(Nc2nccc(N3CCC(NC(=O)C(C)c4ccc(Cl)cc4)CC3)n2)cc1` (stereo unspecified) came in with an XC50 of 934 nM. `COc1ccc(-c2nc(NC(=O)Cc3coc4cc(OC)ccc34)sc2C)cc1` had an XC50 of 609 nM. On to `FC(F)(F)c1cccc(Nc2nc(-n3ccnc3)nc(-n3ccnc3)n2)c1`, for which the XC50 was determined as 724 nM. Consider `CC(C)CNc1c2c(nc3cnn(-c4c5c(nc6cn[nH]c46)CCCC5)c13)CCCC2`, for which the XC50 stood at 795 nM.

In the case of `COc1cc(-c2nc(-c3ccccc3)c(-c3ccccc3)[nH]2)ccc1OCCN(C)C`, the XC50 amounted to 303 nM.

On to `CN(C)C(=O)CC(=O)NCc1cccc(Cl)c1`, for which the XC50 worked out at 711 nM. For the molecule `O=C(/C=C/c1ccc2ccccc2c1)NCCCCCN1CCC(c2c[nH]c3ccccc23)CC1`, the XC50 came to 1220 nM. On to `Clc1ccccc1C=NN=c1cc[nH]c2ccccc12`, for which the XC50 worked out at 850 nM. For `COc1cccc2cc(C(=O)N[C@@H](CC(C)C)C(=O)N[C@H](C=NN(C)C(=O)OC(C)(C)C)Cc3ccccc3)oc12`, the XC50 stood at 262 nM. The molecule `Cc1ccc(-c2ccn(Cc3cccc(OCc4ccccc4)c3)n2)cn1.Cc1ccc(-c2ccnn2Cc2cccc(OCc3ccccc3)c2)cn1` came in with an XC50 of 1180 nM.

In turn, `Cc1ccc(O)c(Nc2c3c(c(C#N)c4nc5ccccc5n24)CCC3)c1` registered an XC50 of 1250 nM. With `CC(C)Cc1nc(N)nc(N)c1-c1ccc(Cl)cc1`, the XC50 stood at 145 nM.

As for `O=C(/C=C/c1ccc(Cl)c(Cl)c1)N1CCC(CN2CCC(Cc3c[nH]c4ccccc34)CC2)CC1`, the XC50 came out at 674 nM.

Regarding `Cc1n[nH]c2ccc(-c3cc(OC[C@@H](N)Cc4ccccc4)cnc3-c3cc4ccccc4s3)cc12`, the XC50 came to 810 nM. Consider `COc1cc(Nc2ccnc3cc(-c4nccs4)ccc23)ccc1OCCCc1nc2ccccc2[nH]1`, for which the XC50 was found to be 237 nM.

In the case of `COc1ccc2ncc(OC)c(CCN3CC[C@@H](NCc4ccc5c(n4)NC(=O)CS5)[C@H](O)C3)c2n1`, the XC50 is 831 nM. On to `O=S(=O)(Nc1cccc(F)c1CNCc1ccccn1)c1ccc(Cl)c(Cl)c1`, for which the XC50 came out at 889 nM. With `CC12CCC(C(=O)N(CC(O)Cn3c4ccc(Cl)cc4c4cc(Cl)ccc43)C1=O)C2(C)C` (stereo unspecified), the XC50 turned out to be 844 nM. As for `COc1ccccc1CNC(=O)c1cc(OC)c(OC)cc1NC(=O)c1cccs1`, the XC50 was 1440 nM. The value for `CCCCCCN1CCC(NCc2ccc(C(F)(F)F)cc2)CC1` was 375 nM. In turn, `CN(Cc1cccc(F)c1)C1CCCN(c2cc(NC(=O)c3ccccc3)ccn2)C1` (stereo unspecified) returned an XC50 of 919 nM. `COC(=O)c1ccc(NC(=O)Nc2cccc(CCNCc3ccccc3)c2)cc1` returned an XC50 of 867 nM.

With `CC(CN1CCN(C)CC1)C(=O)Nc1cccc(-c2ccc(-c3nc4cc(F)ccc4[nH]3)cc2)c1` (stereo unspecified), the XC50 was 807 nM. In the case of `CC1(C)CC2CC(C)(CN2C(=O)c2cc(C(C)(C)C)nn2Cc2ccccc2)C1` (stereo unspecified), the XC50 came to 1090 nM.
